Measurements reported in BindingDB's records for doi:10.3109/10799899109064686 (Center For Bio-Pharmaceutical Sciences, 1991).
pKi: −log10 of the molar value.

Experiments:
[1] = target: Sodium-dependent serotonin transporter (Rattus norvegicus, UniProt P31652)
[2] = target: T1, Muscarinic acetylcholine receptor M2 (Rattus norvegicus, UniProt P10980)
T1 sequence (P10980 whole entry): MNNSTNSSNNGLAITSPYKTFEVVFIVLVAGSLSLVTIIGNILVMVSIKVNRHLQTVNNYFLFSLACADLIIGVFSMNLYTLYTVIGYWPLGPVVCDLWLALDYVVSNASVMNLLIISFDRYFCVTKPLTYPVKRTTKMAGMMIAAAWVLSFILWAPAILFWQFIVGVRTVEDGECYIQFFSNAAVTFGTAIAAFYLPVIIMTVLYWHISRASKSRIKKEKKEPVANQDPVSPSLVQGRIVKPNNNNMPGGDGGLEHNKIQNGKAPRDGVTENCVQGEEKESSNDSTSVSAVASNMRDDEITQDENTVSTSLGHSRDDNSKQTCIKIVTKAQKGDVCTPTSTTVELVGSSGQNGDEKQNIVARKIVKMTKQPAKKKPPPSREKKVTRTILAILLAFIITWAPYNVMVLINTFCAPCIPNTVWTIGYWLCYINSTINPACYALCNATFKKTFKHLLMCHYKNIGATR

Sodium-dependent serotonin transporter, sequence (P31652 whole entry): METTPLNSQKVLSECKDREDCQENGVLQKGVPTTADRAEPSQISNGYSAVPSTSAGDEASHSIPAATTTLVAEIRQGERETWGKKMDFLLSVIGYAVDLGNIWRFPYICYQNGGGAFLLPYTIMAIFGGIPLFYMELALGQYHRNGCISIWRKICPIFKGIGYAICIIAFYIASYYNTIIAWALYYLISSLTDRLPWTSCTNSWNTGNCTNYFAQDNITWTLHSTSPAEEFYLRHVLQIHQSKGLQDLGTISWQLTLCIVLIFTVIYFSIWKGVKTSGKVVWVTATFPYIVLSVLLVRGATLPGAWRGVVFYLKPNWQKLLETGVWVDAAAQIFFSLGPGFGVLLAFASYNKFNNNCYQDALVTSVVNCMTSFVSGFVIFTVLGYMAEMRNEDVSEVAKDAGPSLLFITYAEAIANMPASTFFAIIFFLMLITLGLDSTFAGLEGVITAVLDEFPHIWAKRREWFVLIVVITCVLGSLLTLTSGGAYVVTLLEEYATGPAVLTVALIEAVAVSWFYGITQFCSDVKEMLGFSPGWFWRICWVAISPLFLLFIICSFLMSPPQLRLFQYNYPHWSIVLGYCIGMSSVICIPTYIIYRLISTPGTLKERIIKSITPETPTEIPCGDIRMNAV

N=C(N)NC(=O)c1nc(Cl)c(N2CCCCCC2)nc1N
pKi [1]: 5.10 | pKi [2]: 5.54

NC(=NCc1ccccc1)NC(=O)c1nc(Cl)c(N)nc1N [NSC_108107]
pKi [1]: 5.72 | pKi [2]: 5.24

N=C(N)NC(=O)c1nc(Cl)c(N)nc1N [3,5-diamino-N-carbamimidoyl-6-chloropyrazine-2-carboxamide]
pKi [2]: < 5.00
